According to US11608330B2, “Methylamine derivatives as lysysl oxidase inhibitors for the treatment of cancer” (The Institute of Cancer Research: Royal Cancer Hospital, priority 2016, dated 2023):

Columns and labels:
[1] = test system: TGF beta signalling (pSMAD2); format: cell-based
[2] = test system: MATN2 in MDA-MB-231 cells; test: MATN2 level in MDA-MB-231 cells; format: cell-based, human; conditions: at a much higher concentration
Method: Proteins were extracted from cultured cells using cell lysis buffer (Cell Signalling Technology) with the addition of protease and phosphatase inhibitor cocktails (Pierce). Protein concentrations were measured using Pierce 660 nm protein assay reagent and SpectaMax M5 plate reader. […] Separated proteins were transferred to nitrocellulose membranes using a Trans-Blot turbo transfer system (Bio-Rad). Following blocking with Odyssey blocking buffer (Li—COR), membranes were incubated with two primary antibodies of different species at 4° C. over night. Corresponding fluorescence secondary antibodies (Li—COR) of different excitation and emission wavelengths were used to visualize the protein of interest on an Odyssey CLx infrared imaging system (Li—COR). Quantification of band fluorescent intensity was achieved using Li-COR ImageStudio. The following primary antibodies were used, anti-LOX (Sigma), anti-human MATN2 (R&D), anti-EGFR and anti-pY1068EGFR (Cell Signalling Technology), and anti-GAPDH (Millipore).

Compound: N#CCCN [BAPN, beta-aminopropionitrile]
- TGF beta signalling as indicated by pSMAD2 [1]: increased TGF beta signalling
- reduction of MATN2 [2]: same effect
